Consider 21 molecules from patent US20120165331A1, “Di/tri-aza-spiro-C9-C11alkanes” (priority 2010, published 2012).

Molecules are shown by their SMILES.

The target in one assay is T1, human orexin 1 receptor (Homo sapiens, UniProt O43613).
T1 construct: expressed in transfected cells
T1 sequence (O43613 1-425): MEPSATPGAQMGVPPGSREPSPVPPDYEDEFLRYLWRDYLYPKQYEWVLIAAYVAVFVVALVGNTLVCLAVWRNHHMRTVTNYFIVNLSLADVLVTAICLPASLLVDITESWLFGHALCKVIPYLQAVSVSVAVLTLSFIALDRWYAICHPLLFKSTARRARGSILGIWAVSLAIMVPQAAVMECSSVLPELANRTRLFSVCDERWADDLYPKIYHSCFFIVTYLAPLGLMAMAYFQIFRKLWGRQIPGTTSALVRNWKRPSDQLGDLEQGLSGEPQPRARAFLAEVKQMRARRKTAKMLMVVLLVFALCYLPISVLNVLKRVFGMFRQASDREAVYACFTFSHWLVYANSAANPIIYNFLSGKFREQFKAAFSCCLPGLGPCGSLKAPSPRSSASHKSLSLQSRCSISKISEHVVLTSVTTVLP
The assay is described as follows: Calcium accumulation in cells (FLIPR), antagonism of orexin A, human orexin 1 receptor. It is filed as cell-based. Particulars: for inhibition at 10 µM: measured at a concentration of 10 μM of compound, read-out: FLIPR hOx1R % inhibition; for Ki: calcium accumulation, antagonism of orexin A, Cheng-Prusoff corrected, read-out: FLIPR hOx1R Ki. On the procedure:
(§1) Calcium Accumulation in Cells (FLIPR):
(§2) Cells expressing human orexin 1 or human orexin 2 receptors, were seeded at 8,000 cells/well in 384 well black-walled clear bottom, poly-D-lysine coated plates. After 24 h, the medium was removed and cells were washed once with phosphate buffered saline and serum-deprived overnight in assay buffer (130 mM NaCl, 5.4 mM KCl, 1.8 mM CaCl2, 0.8 mM MgSO4, 0.9 mM NaH2PO4, 25 mM glucose, 20 mM HEPES, pH 7.4) containing bovine serum albumin (1% w/v).
(§3) On the day of the experiment, the cells seeded in black plates were treated with assay buffer containing the Ca^2+ sensitive fluorescent dye Fluo-4-AM (2 μM), and probenecid (0.1 mM). After 1 h plates were washed twice with, and resuspended in, assay buffer containing probenecid (0.1 mM) using a multi plate washer. The plates were placed into a FLIPR II (Fluorometric Imaging Plate Reader, Molecular Devices, Sunnyvale, Calif., USA) and baseline fluorescence (fluorescence light units, FLU) was measured (5 measurements, 2 S each; laser excitation 488 nm at 0.6-1 W, CCD camera exposure 0.4 s) before addition of buffer alone (basal) or containing test compounds (either compound of formula I alone, agonist alone or agonist in the presence of various concentrations of compounds of formula I). Fluorescence measurements were then continued every 1 S for 120 S followed by every 4 S for 240 S.
(§4) The measurements were typically made in two sequences:
(§5) Compounds of formula I were tested usually in a concentration range from 10^−9 M to 10^−5 M.
(§6) In the second round, performed one hour later (to allow for equilibration), Orexin A was tested either in the absence (calibration curves, Orexin A agonist controls) or in the presence of compounds of formula Ito determine antagonism.
(§7) Inhibition data is expressed in Table 1 as Kd [μM], converted by the Cheng and Prusoff correction (Kd=IC50/1+(L/EC50)), where IC50 is the 50% inhibition value determined in concentration response inhibition curves, EC50 is the half maximal activation concentration determined for orexin A in concentration response curves and L is the concentration of orexin A used in inhibition experiments performed in with a submaximal concentration of orexin A in the presence of up to 8 increasing concentrations of compound of formula I. Inhibition data is also expressed in Table 1 as % inhibition value measured at a concentration of 10 μM of selected compounds of formula I.

Another assay deals with T2, human orexin 2 receptor (Homo sapiens, UniProt O43614).
T2 construct: expressed in transfected cells
T2 sequence (O43614 1-444): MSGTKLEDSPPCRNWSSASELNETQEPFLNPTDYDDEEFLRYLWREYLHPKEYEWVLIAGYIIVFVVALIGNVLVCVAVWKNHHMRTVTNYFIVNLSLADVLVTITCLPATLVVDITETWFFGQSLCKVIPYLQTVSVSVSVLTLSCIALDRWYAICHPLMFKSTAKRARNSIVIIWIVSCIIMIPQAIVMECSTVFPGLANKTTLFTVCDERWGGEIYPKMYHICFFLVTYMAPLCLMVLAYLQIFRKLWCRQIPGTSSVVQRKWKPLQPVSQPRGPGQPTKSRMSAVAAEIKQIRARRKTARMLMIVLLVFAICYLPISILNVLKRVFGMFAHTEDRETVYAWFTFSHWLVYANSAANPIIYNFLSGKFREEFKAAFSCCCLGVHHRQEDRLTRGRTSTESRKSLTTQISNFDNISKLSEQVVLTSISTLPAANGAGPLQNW
The assay can be described thus: Calcium accumulation in cells (FLIPR), antagonism of orexin A, human orexin 2 receptor. The following applies: for inhibition at 10 µM: measured at a concentration of 10 μM of compound, read-out: FLIPR hOx2R % inhibition; for Ki: calcium accumulation, antagonism of orexin A, Cheng-Prusoff corrected, read-out: FLIPR hOx2R Ki. It counts as cell-based. On the procedure:
as §1, §2, §3, §4, §5, §6, §7

Take `CCc1cc(-c2nn(C)nc2CN2CCNC3(CCN(c4nc(C)cc(C)n4)CC3)C2=O)ccn1` [Example 1.75, 9-(4,6-dimethyl-pyrimidin-2-yl)-4-((5-(2-ethyl-pyridin-4-yl)-2-methyl-2H-1,2,3-triazol-4-yl)methyl)-1,4,9-triazaspiro[5.5] undecan-5-one]: the inhibition (commonly the change of the read-out against control, counted positive when it falls) at 10 µM on human orexin 1 receptor is below 10%; on human orexin 2 receptor, 35%.

Consider `Cc1cc(C)nc(N2CCC3(CC2)OCCN(Cc2c(-c4ccccc4)nnn2C)C3=O)n1` [Example 2.15, 9-(4,6-Dimethylpyrimidin-2-yl)-4-((1-methyl-4-phenyl-1H-1,2,3-triazol-5-yl)methyl)-1-oxa-4,9-diazaspiro[5.5]undecan-5-one], for which, at human orexin 1 receptor, the inhibition at 10 µM stood at 10%. Also, on human orexin 2 receptor, the Ki (as a rule, a dissociation constant, usually derived from enzyme kinetics or from competition with a known ligand) worked out at 2160 nM.

Consider `Cc1cc(C)nc(N2CCC3(CC2)NCCN(Cc2ccccc2-c2nc(C)no2)C3=O)n1` [Example 1.69, 9-(4,6-dimethyl-pyrimidin-2-yl)-4-(2-(3-methyl-1,2,4-oxadiazol-5-yl)benzyl)-1,4,9-triazaspiro[5.5] undecan-5-one], for which the inhibition at 10 µM on human orexin 1 receptor was found to be 13%. At human orexin 2 receptor, the inhibition constant Ki came out at 235 nM.

With `Cc1cc(C)nc(N2CCC3(CC2)NCCN(Cc2nocc2-c2ccccc2)C3=O)n1` [Example 1.81, 9-(4,6-dimethyl-pyrimidin-2-yl)-4-((4-phenyl-isoxazol-3-yl)methyl)-1,4,9-triazaspiro[5.5] undecan-5-one], the inhibition at 10 µM on human orexin 1 receptor was 33%. The inhibitory constant (Ki) at human orexin 2 receptor came to 2190 nM.

As for `COc1nc(C)cc(N2CCC3(CC2)NCCN(Cc2c[nH]c4ccccc24)C3=O)n1` [Example 1.66, 4-((1H-indol-3-yl)methyl)-9-(2-methoxy-6-methyl-pyrimidin-4-yl)-1,4,9-triazaspiro[5.5] undecan-5-one], the Ki amounted to 3920 nM on human orexin 1 receptor and 632 nM at human orexin 2 receptor.

As to `Cc1ccnc(N2CCC3(CC2)NCCN(Cc2c[nH]c4ccccc24)C3=O)n1` [Example 1.6, 4-((1H-Indol-3-yl)methyl)-9-(4-methylpyrimidin-2-yl)-1,4,9-triazaspiro[5.5] undecan-5-one], the inhibition at 10 µM at human orexin 1 receptor is 26%. Further, the Ki on human orexin 2 receptor was 222 nM.

For `Cc1cc(N2CCOCC2)nc(N2CCC3(CCN(Cc4c[nH]c5ccccc45)C3=O)C2)n1` (stereo not drawn) [Example 5.25, 2-((1H-indol-3-yl)methyl)-7-(4-methyl-6-morpholinopyrimidin-2-yl)-2,7-diazaspiro[4.4]nonan-1-one], the figures for the inhibition at 10 µM on human orexin 1 receptor and on human orexin 2 receptor were 71% and 66%, respectively.

For the molecule `CC(C)c1ccnc(N2CCC3(CCN(Cc4c[nH]c5ccccc45)C3=O)C2)n1` (stereo not drawn) [Example 5.39, 2-((1H-indol-3-yl)methyl)-7-(4-isopropylpyrimidin-2-yl)-2,7-diazaspiro[4.4]nonan-1-one], the Ki was 1210 nM on human orexin 1 receptor and 283 nM on human orexin 2 receptor.

As for `N#Cc1ccnc(N2CCC3(CC2)COCC(=O)N3Cc2cccc3[nH]ccc23)n1` [Example 8.18, 2-(1-((1H-Indol-4-yl)methyl)-2-oxo-4-oxa-1,9-diazaspiro[5.5]undecan-9-yl)pyrimidine-4-carbonitrile], the inhibition at 10 µM on human orexin 1 receptor was 25%. Also, on human orexin 2 receptor, the Ki was 1010 nM.

Take `Cc1cncc(N2CCC3(CC2)COCC(=O)N3Cc2cccc3[nH]ccc23)n1` [Example 8.14, 1-((1H-Indol-4-yl)methyl)-9-(6-methylpyrazin-2-yl)-4-oxa-1,9-diazaspiro[5.5]undecan-2-one]: at human orexin 1 receptor, the inhibition at 10 µM was determined as 14%. Moreover, the Ki on human orexin 2 receptor was determined as 506 nM.

Regarding `Cc1cc(N2CCC3(CCN(Cc4c[nH]c5ccccc45)C3=O)C2)nc(C)n1` (stereo not drawn) [Example 5.31, 2-((1H-indol-3-yl)methyl)-7-(2,6-dimethylpyrimidin-4-yl)-2,7-diazaspiro[4.4]nonan-1-one], the inhibition at 10 µM was below 10% at human orexin 1 receptor and 24% on human orexin 2 receptor.

Turning to `COc1cc(C)nc(N2CCC3(CCN(Cc4ccccc4-c4nc(C)no4)C3=O)C2)n1` (stereo not drawn) [Example 5.42, 7-(4-methoxy-6-methylpyrimidin-2-yl)-2-(2-(3-methyl-1,2,4-oxadiazol-5-yl)benzyl)-2,7-diazaspiro[4.4]nonan-1-one], the Ki on human orexin 1 receptor was 1950 nM; at human orexin 2 receptor, 180 nM.

As to `Cc1cn2ccnc(N3CCC4(CCN(Cc5c[nH]c6ccccc56)C4=O)C3)c2n1` (stereo not drawn) [Example 5.40, 2-((1H-indol-3-yl)methyl)-7-(2-methylimidazo[1,2-a]pyrazin-8-yl)-2,7-diazaspiro[4.4]nonan-1-one], the inhibition constant Ki on human orexin 1 receptor worked out at 1730 nM; at human orexin 2 receptor, 188 nM.

Consider `O=C1N(Cc2c[nH]c3ccccc23)CCC12CCN(c1nc3cc(Cl)ccc3o1)C2` (stereo not drawn) [Example 5.15, 2-((1H-Indol-3-yl)methyl)-7-(5-chlorobenzo[d]oxazol-2-yl)-2,7-diazaspiro[4.4]nonan-1-one], for which the inhibition at 10 µM on human orexin 1 receptor is 29%; on human orexin 2 receptor it was 37%.

For `COc1cccc(-c2nn(C)nc2CN2CCCC3(CCN(c4nccc(OC)n4)C3)C2=O)c1` (stereo not drawn) [Example 7.7, 7-((5-(3-Methoxyphenyl)-2-methyl-2H-1,2,3-triazol-4-yl)methyl)-2-(4-methoxypyrimidin-2-yl)-2,7-diazaspiro[4.5]decan-6-one], the inhibition constant Ki on human orexin 1 receptor worked out at 537 nM; on human orexin 2 receptor, 366 nM.

Consider `COc1ccnc(N2CCC3(CCN(Cc4n[nH]c5ccccc45)C3=O)CC2)n1` [Example 3.16, 2-(1H-Indazol-3-ylmethyl)-8-(4-methoxy-pyrimidin-2-yl)-2,8-diaza-spiro[4.5]decan-1-one], for which, at human orexin 1 receptor, the inhibition at 10 µM amounted to 39%. For the same molecule, the inhibitory constant (Ki) at human orexin 2 receptor came out at 673 nM.

With `COc1cc(OC)cc(-c2cn(C)nc2CN2CCNC3(CCN(c4nc(C)cc(C)n4)CC3)C2=O)c1` [Example 1.37, 4-((4-(3,5-Dimethoxyphenyl)-1-methyl-1H-pyrazol-3-yl)methyl)-9-(4,6-dimethylpyrimidin-2-yl)-1,4,9-triazaspiro[5.5] undecan-5-one], the inhibition at 10 µM on human orexin 1 receptor came to 40%. The Ki on human orexin 2 receptor was 2330 nM.

Take `O=C1N(Cc2c[nH]c3ccccc23)CCCC12CCN(c1nc3ccccc3o1)C2` (stereo not drawn) [Example 7.8, 7-((1H-Indol-3-yl)methyl)-2-(benzo[d]oxazol-2-yl)-2,7-diazaspiro[4.5]decan-6-one]: the inhibition constant (Ki) at human orexin 1 receptor is 98 nM; at human orexin 2 receptor, 168 nM.

As to `COc1ccnc(N2CCC3(CCN(Cc4c[nH]c5ccccc45)C3=O)C2)n1` (stereo not drawn) [Example 5.1, 2-((1H-indol-3-yl)methyl)-7-(4-methoxypyrimidin-2-yl)-2,7-diazaspiro[4.4]nonan-1-one], the Ki at human orexin 1 receptor came to 2140 nM; on human orexin 2 receptor it was 132 nM.

For `Cc1ccnc(N2CCC3(CCN(Cc4c[nH]c5ccccc45)C3=O)C2)n1` (stereo not drawn) [Example 5.6, 2-((1H-Indol-3-yl)methyl)-7-(4-methylpyrimidin-2-yl)-2,7-diazaspiro[4.4]nonan-1-one], the inhibition at 10 µM on human orexin 1 receptor turned out to be 33%. Further, on human orexin 2 receptor, the Ki is 393 nM.

As to `Cc1cc(C)nc(N2CCC3(CC2)NCCN(Cc2ccccc2-c2ncc(C)o2)C3=O)n1` [Example 1.64, 9-(4,6-dimethyl-pyrimidin-2-yl)-4-(2-(5-methyloxazol-2-yl)benzyl)-1,4,9-triazaspiro[5.5] undecan-5-one], at human orexin 1 receptor, the inhibition at 10 µM is 32%. In addition, the Ki on human orexin 2 receptor turned out to be 423 nM.
